The results in this text go back to patent publication US20260167623A1 (NIKANG THERAPEUTICS, INC., priority 2022, published 2026).

The target of assay [1] is T1, CDK2 (Homo sapiens, UniProt P24941).
T1 construct: High-Throughput Measurement of Cellular Endogenous CDK2; endogenous in cells; host or cells: OVCAR3
Description: Inhibition of CDK2: phospho-Rb (S807/811) HTRF measurement in OVCAR3 cells, 24 h. In kind it is cell-based. As to conditions: 24 h compound treatment, read-out: pRB_OVCAR3_24h. The gist of the method:
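OVCAR3 cells, seeded overnight, were exposed to compounds at 0.3 to 10,000 nM for 24 h, then lysed. Rb S807/811 phosphorylation read by HTRF (665/620 nm ratio) after 4 h detection at room temperature; data normalized to DMSO and IC50 from four-parameter logistic fit.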
(In general: Time-resolved FRET reads energy transfer from a long-lived donor to a nearby acceptor.)

Assay [2] deals with T1, CDK2. Description: High-throughput HTRF measurement of cellular endogenous CDK2 level (degradation, DC50/Dmax) in OVCAR3 cells, 6 h. Format: cell-based. As to conditions: 6 h compound treatment, HTRF total CDK2, read-out: DC50_OVCAR3_6h. A digest of the protocol:
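OVCAR3 cells were treated overnight after seeding with compounds at 0.03–1,000 nM for 6 h, then lysed. Total CDK2 was quantified by HTRF (d2- and Eu-cryptate anti-CDK2 antibodies, […] ratio) after overnight incubation at room temperature. Data normalized to DMSO (0%) and lysis buffer (100% degradation); DC50 from four-parameter logistic fit.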

`Cn1c(=O)n(C2CCC(=O)NC2=O)c2cccc(C3CCN(CC4CCN(c5cc(F)cc(S(=O)(=O)N6CCC(Nc7ncc(Cl)cn7)CC6)c5)CC4)CC3)c21` (stereo not shown) [Example 180, 3-(4-(1-((1-(3-((4-((5-chloropyrimidin-2-yl)amino)piperidin-1-yl)sulfonyl)-5-fluorophenyl)piperidin-4-yl)methyl)piperidin-4-yl)-3-methyl-2-oxo-2,3-dihydro-1H-benzo[d]imidazol-1-yl)piperidine-2,6-dione]: on CDK2 [1], the IC50 is 100 to 500 nM. The DC50 on CDK2 [2] was 10 to 100 nM.

Take `Cn1c(=O)n(C2CCC(=O)NC2=O)c2cccc(C3CCN(CC4CCN(c5cc(S(=O)(=O)N6CCC(Nc7ncc(C(F)(F)F)cn7)CC6)ccc5C#N)CC4)CC3)c21` (stereo not shown) [Example 181, 2-(4-((4-(1-(2,6-dioxopiperidin-3-yl)-3-methyl-2-oxo-2,3-dihydro-1H-benzo[d]imidazol-4-yl)piperidin-1-yl)methyl)piperidin-1-yl)-4-((4-((5-(trifluoromethyl)pyrimidin-2-yl)amino)piperidin-1-yl)sulfonyl)benzonitrile]: on CDK2 [1], the IC50 is 1 to 100 nM. The DC50 at CDK2 [2] was 1 to 10 nM.

Consider `Cn1c(=O)n(C2CCC(=O)NC2=O)c2cccc(C3CCN(Cc4cc(F)cc(S(=O)(=O)N5CCC(Nc6ncc(OC(F)F)cn6)CC5)c4)CC3)c21` (stereo not shown) [Example 184, 3-(4-(1-(3-((4-((5-(difluoromethoxy)pyrimidin-2-yl)amino)piperidin-1-yl)sulfonyl)-5-fluorobenzyl)piperidin-4-yl)-3-methyl-2-oxo-2,3-dihydro-1H-benzo[d]imidazol-1-yl)piperidine-2,6-dione], for which the IC50 at CDK2 [1] fell in the range of 1 to 100 nM. Besides, the DC50 at CDK2 [2] fell in the range of 1 to 10 nM.

As to `Cn1nc(N2CCC(=O)NC2=O)c2ccc(C3CCN(CC4CCN(c5cc(S(=O)(=O)N6CCC(Nc7ncc(C(F)(F)F)cn7)CC6)ccc5C#N)CC4)CC3)c(F)c21` [Example 188, 2-(4-((4-(3-(2,4-dioxotetrahydropyrimidin-1(2H)-yl)-7-fluoro-1-methyl-1H-indazol-6-yl)piperidin-1-yl)methyl)piperidin-1-yl)-4-((4-((5-(trifluoromethyl)pyrimidin-2-yl)amino)piperidin-1-yl)sulfonyl)benzonitrile], the IC50 on CDK2 [1] fell in the range of 1 to 100 nM. At CDK2 [2], the DC50 was 10 to 100 nM.

With `CN(CCCN1CCC(c2cccc3c2n(C)c(=O)n3C2CCC(=O)NC2=O)CC1)c1cccc(S(=O)(=O)N2CCC(Nc3ncc(C(F)(F)F)cn3)CC2)c1` (stereo not shown) [Example 190, 3-(3-methyl-4-(1-(3-(methyl(3-((4-((5-(trifluoromethyl)pyrimidin-2-yl)amino)piperidin-1-yl)sulfonyl)phenyl)amino)propyl)piperidin-4-yl)-2-oxo-2,3-dihydro-1H-benzo[d]imidazol-1-yl)piperidine-2,6-dione], at CDK2 [1], the IC50 lay in the range of 1 to 100 nM. At CDK2 [2], the DC50 was 10 to 100 nM.

With `Cn1nc(N2CCC(=O)NC2=O)c2ccc(C3CCN(CC4CCN(c5cc(S(=O)(=O)N6CCC(Nc7ncc(OC(F)F)cn7)CC6)ccc5C#N)CC4)CC3)c(F)c21` [Example 192, 4-((4-((5-(difluoromethoxy)pyrimidin-2-yl)amino)piperidin-1-yl)sulfonyl)-2-(4-((4-(3-(2,4-dioxotetrahydropyrimidin-1(2H)-yl)-7-fluoro-1-methyl-1H-indazol-6-yl)piperidin-1-yl)methyl)piperidin-1-yl)benzonitrile], the IC50 at CDK2 [1] was 1 to 100 nM. Also, the DC50 on CDK2 [2] lay in the range of 1 to 10 nM.

On to `N#Cc1ccc(S(=O)(=O)N2CCC(Nc3ncc(Cl)cn3)CC2)cc1N1CCC(CN2CCC(c3cccc4c3oc(=O)n4C3CCC(=O)NC3=O)CC2)CC1` (stereo not shown) [Example 197, 4-((4-((5-chloropyrimidin-2-yl)amino)piperidin-1-yl)sulfonyl)-2-(4-((4-(3-(2,6-dioxopiperidin-3-yl)-2-oxo-2,3-dihydrobenzo[d]oxazol-7-yl)piperidin-1-yl)methyl)piperidin-1-yl)benzonitrile], for which the IC50 on CDK2 [1] fell in the range of 1 to 100 nM. Moreover, the DC50 at CDK2 [2] fell in the range of 10 to 100 nM.

Turning to `N#Cc1ccc(S(=O)(=O)N2CCC(Nc3ncc(C(F)(F)F)cn3)CC2)cc1N1CCC(CN2CCC(c3cccc4c3oc(=O)n4C3CCC(=O)NC3=O)CC2)CC1` (stereo not shown) [Example 198, 2-(4-((4-(3-(2,6-dioxopiperidin-3-yl)-2-oxo-2,3-dihydrobenzo[d]oxazol-7-yl)piperidin-1-yl)methyl)piperidin-1-yl)-4-((4-((5-(trifluoromethyl)pyrimidin-2-yl)amino)piperidin-1-yl)sulfonyl)benzonitrile], on CDK2 [1], the IC50 was 1 to 100 nM. At CDK2 [2], the DC50 lay in the range of 1 to 10 nM.

Take `Cn1nc(N2CCC(=O)NC2=O)c2ccc(C3CCN(CC4CCN(c5cccc(S(=O)(=O)N6CCC(Nc7ncc(Br)cn7)CC6)c5)CC4)CC3)cc21` [Example 199, 1-(6-(1-((1-(3-((4-((5-bromopyrimidin-2-yl)amino)piperidin-1-yl)sulfonyl)phenyl)piperidin-4-yl)methyl)piperidin-4-yl)-1-methyl-1H-indazol-3-yl)dihydropyrimidine-2,4(1H,3H)-dione]: on CDK2 [1], the IC50 fell in the range of 1 to 100 nM. In addition, the DC50 on CDK2 [2] was 1 to 10 nM.

For the compound `O=C1CCC(n2c(=O)oc3c(C4CCN(CC5CCN(c6cccc(S(=O)(=O)N7CCC(Nc8ncc(C(F)(F)F)cn8)CC7)c6)CC5)CC4)cccc32)C(=O)N1` (stereo not shown) [Example 201, 3-(2-oxo-7-(1-((1-(3-((4-((5-(trifluoromethyl)pyrimidin-2-yl)amino)piperidin-1-yl)sulfonyl)phenyl)piperidin-4-yl)methyl)piperidin-4-yl)benzo[d]oxazol-3(2H)-yl)piperidine-2,6-dione], on CDK2 [1], the IC50 lay in the range of 1 to 100 nM. For the same compound, the DC50 on CDK2 [2] fell in the range of 1 to 10 nM.

Regarding `Cn1c(=O)n(C2CCC(=O)NC2=O)c2cccc(N3CCN(CC4CCN(c5cc(S(=O)(=O)N6CCC(Nc7ncc(Cl)cn7)CC6)ccc5C#N)CC4)CC3)c21` (stereo not shown) [Example 203, 4-((4-((5-chloropyrimidin-2-yl)amino)piperidin-1-yl)sulfonyl)-2-(4-((4-(1-(2,6-dioxopiperidin-3-yl)-3-methyl-2-oxo-2,3-dihydro-1H-benzo[d]imidazol-4-yl)piperazin-1-yl)methyl)piperidin-1-yl)benzonitrile], the IC50 on CDK2 [1] was in the range of 1 to 100 nM. The DC50 on CDK2 [2] was in the range of 1 to 10 nM.

For `Cn1c(=O)n(C2CCC(=O)NC2=O)c2ccc(C3CCN(CC4CCN(c5cc(S(=O)(=O)N6CCC(Nc7ncc(Cl)cn7)CC6)ccc5C#N)CC4)CC3)cc21` (stereo not shown) [Example 204, 4-((4-((5-chloropyrimidin-2-yl)amino)piperidin-1-yl)sulfonyl)-2-(4-((4-(1-(2,6-dioxopiperidin-3-yl)-3-methyl-2-oxo-2,3-dihydro-1H-benzo[d]imidazol-5-yl)piperidin-1-yl)methyl)piperidin-1-yl)benzonitrile], the IC50 at CDK2 [1] was 1 to 100 nM. Also, on CDK2 [2], the DC50 lay in the range of 1 to 10 nM.

`Cn1c(=O)n(C2CCC(=O)NC2=O)c2ccc(C3CCN(CC4CCN(c5cc(S(=O)(=O)N6CCC(Nc7ncc(C(F)(F)F)cn7)CC6)ccc5C#N)CC4)CC3)cc21` (stereo not shown) [Example 205, 2-(4-((4-(1-(2,6-dioxopiperidin-3-yl)-3-methyl-2-oxo-2,3-dihydro-1H-benzo[d]imidazol-5-yl)piperidin-1-yl)methyl)piperidin-1-yl)-4-((4-((5-(trifluoromethyl)pyrimidin-2-yl)amino)piperidin-1-yl)sulfonyl)benzonitrile]: the IC50 on CDK2 [1] lay in the range of 1 to 100 nM. In addition, the DC50 at CDK2 [2] was 0.5 to 1 nM.

For the compound `Cn1nc(N2CCC(=O)NC2=O)c2ccc(C3CCN(CC4(C)CCN(c5cccc(S(=O)(=O)N6CCC(Nc7ncc(Cl)cn7)CC6)c5)CC4)CC3)cc21` [Example 206, 1-(6-(1-((1-(3-((4-((5-chloropyrimidin-2-yl)amino)piperidin-1-yl)sulfonyl)phenyl)-4-methylpiperidin-4-yl)methyl)piperidin-4-yl)-1-methyl-1H-indazol-3-yl)dihydropyrimidine-2,4(1H,3H)-dione], the IC50 at CDK2 [1] was in the range of 1 to 100 nM. For the same compound, on CDK2 [2], the DC50 was in the range of 10 to 100 nM.

For `C=Cc1cnc(NC2CCN(S(=O)(=O)c3cccc(N4CCC(CN5CCC(c6ccc7c(N8CCC(=O)NC8=O)nn(C)c7c6)CC5)CC4)c3)CC2)nc1` [Example 208, 1-(1-methyl-6-(1-((1-(3-((4-((5-vinylpyrimidin-2-yl)amino)piperidin-1-yl)sulfonyl)phenyl)piperidin-4-yl)methyl)piperidin-4-yl)-1H-indazol-3-yl)dihydropyrimidine-2,4(1H,3H)-dione], on CDK2 [1], the IC50 is 1 to 100 nM. At CDK2 [2], the DC50 was in the range of 1 to 10 nM.

On to `Cn1c(=O)n(C2CCC(=O)NC2=O)c2cc(F)cc(C3CCN(CC4CCN(c5cc(S(=O)(=O)N6CCC(Nc7ncc(Cl)cn7)CC6)ccc5C#N)CC4)CC3)c21` (stereo not shown) [Example 209, 4-((4-((5-chloropyrimidin-2-yl)amino)piperidin-1-yl)sulfonyl)-2-(4-((4-(1-(2,6-dioxopiperidin-3-yl)-6-fluoro-3-methyl-2-oxo-2,3-dihydro-1H-benzo[d]imidazol-4-yl)piperidin-1-yl)methyl)piperidin-1-yl)benzonitrile], for which, at CDK2 [1], the IC50 was 1 to 100 nM. Moreover, the DC50 on CDK2 [2] lay in the range of 10 to 100 nM.

`Cn1nc(-n2ccc(=O)[nH]c2=O)c2ccc(C3CCN(CC4CCN(c5cccc(S(=O)(=O)N6CCC(Nc7ncc(C(F)(F)F)cn7)CC6)c5)CC4)CC3)cc21` [Example 211, 1-(1-methyl-6-(1-((1-(3-((4-((5-(trifluoromethyl)pyrimidin-2-yl)amino)piperidin-1-yl)sulfonyl)phenyl)piperidin-4-yl)methyl)piperidin-4-yl)-1H-indazol-3-yl)pyrimidine-2,4(1H,3H)-dione]: the IC50 at CDK2 [1] fell in the range of 1 to 100 nM. For the same compound, on CDK2 [2], the DC50 lay within 1000 to 5000 nM.
